Reference: PMC9090415, “Discovery of small molecule inhibitors of Plasmodium falciparum apicoplast DNA polymerase” (Journal of Enzyme Inhibition and Medicinal Chemistry, 2022)

Target: P. falciparum apicoplast DNA polymerase (Pf-apPOL) (Plasmodium falciparum, UniProt Q8ILY1)
Test: Fluorescence-based high-throughput DNA polymerase assay (molecular beacon), primary screen and dose-response
Type: biochemical
Conditions: for DNA Pol: unit not given, 90 min, 10 µM; for IC50: supplemental file 2, sheet IC50 nontoxic compounds, Pf-apPOL
Procedure: The HT assay employs a molecular beacon, a stem-loop DNA template with a Cy3 dye and the Black Hole Quencher on the 3′ and 5′ ends of the DNA, respectively. Pf-apPOL concentration is based on a calculated absorptivity of ε280 = 56750 M^−1 cm^−1. Reactions were carried out at 25 °C, using Corning 3575 […] (well-volume, 20 µL). Assays testing for compound inhibition composed of reaction buffer (pH 7.9 in 50 mM potassium acetate, 20 mM Tris-acetate and 10 mM magnesium acetate), Pf-apPOL (20 nM), DNA substrate (20 nM), dNTPs (6 µM), and compound (10 µM in DMSO). The DNA and nucleotide substrates (dNTPs) were at concentrations of 20 nM and 6 µM, respectively, in the assay. Pf-apPOL was incubated in the reaction buffer with dNTPs and the compound of interest (10 µM, in the assay) at 25 °C for 10 min. The DNA substrate was then added and the reaction was allowed to proceed for 90 min at 25 °C.
Each assay plate contained 16 negative controls (no Pf-apPOL, DMSO present) and 16 positive controls (Pf-apPOL present, no DMSO). The fluorescence of each well was determined using a BioTek Synergy Neo fluorescence plate reader using excitation and emission wavelengths of 555 and 570 nm, respectively.
In the above, Min is the average of fluorescence emission of the negative controls (substrate only), Max the average fluorescence emission from the positive controls (enzyme + substrate), and Test the emission from the assays in the presence of compounds (enzyme + compound + substrates). […] […] The IC50 of each compound was determined using Equation (2): (2) IC50= Vmax/(1+ (I/IC50)^n)
In the above, n measures cooperativity, with n > 1 indicating synergistic binding of more than a single molecule of the compound.
To identify apPOL inhibitors we utilised our previously developed high-throughput DNA polymerase assay. The HT assay is based on a molecular beacon DNA template that forms a stem-loop with a Cy3 dye and the Black Hole Quencher on the 3′ and 5′ ends of the DNA, respectively. DNA polymerase activity extends an annealed primer through the stem region, displacing the fluorophore from the quencher, thereby increasing its fluorescence (Figure 1(A)). The assay accurately recapitulates the kinetic behaviour of apPOL, as measured through more conventional low-throughput gel-based assays. The Z′ factor for the assay described here was 0.9 across all plates (data not shown).
Figure 1. High-throughput screening. (A) The fluorescent-based DNA polymerase assay used to screen the compound libraries. The DNA template strand is a hairpin loop with a primer annealed to the loop. The 3’ end of the primer is 11 bases away from the 6 bp duplex. Strand displacement activity of the DNA polymerase separates the Cy3 dye from the Black hole quencher leading to an increase in fluorescent signal. (B) The high-throughput assay workflow. The DNA polymerase is incubated with […] compound for 10 min prior to addition of the hairpin substrate. The reaction is quenched at 3 different time points and the fluorescent signal is measured and % inhibition is determined using the provided equation.

[1] = 'DNA Pol' of the 186 hits list (primary screen result)
[2] = primary screen value of the library well

P. falciparum apicoplast DNA polymerase (Pf-apPOL), sequence (Q8ILY1 entry or part of it): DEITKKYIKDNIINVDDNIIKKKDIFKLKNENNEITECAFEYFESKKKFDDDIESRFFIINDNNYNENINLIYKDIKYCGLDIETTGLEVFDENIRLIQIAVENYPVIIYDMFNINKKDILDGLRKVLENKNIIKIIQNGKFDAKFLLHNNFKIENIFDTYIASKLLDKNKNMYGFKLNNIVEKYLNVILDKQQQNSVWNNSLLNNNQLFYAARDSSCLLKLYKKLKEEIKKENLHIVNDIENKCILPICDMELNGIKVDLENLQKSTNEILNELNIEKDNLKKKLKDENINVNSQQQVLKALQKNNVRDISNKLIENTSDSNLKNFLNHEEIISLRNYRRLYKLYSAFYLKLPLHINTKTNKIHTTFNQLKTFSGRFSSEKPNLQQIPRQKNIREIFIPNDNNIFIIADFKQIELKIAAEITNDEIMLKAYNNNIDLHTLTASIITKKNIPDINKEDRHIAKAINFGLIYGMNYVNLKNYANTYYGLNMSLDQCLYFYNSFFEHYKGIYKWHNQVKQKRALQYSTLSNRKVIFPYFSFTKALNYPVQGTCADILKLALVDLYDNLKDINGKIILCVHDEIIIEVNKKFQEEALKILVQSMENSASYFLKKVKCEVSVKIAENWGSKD

Structure (SMILES): NC(=O)c1cc[n+](CC2=C(C(=O)[O-])N3C(=O)[C@@H](NC(=O)[C@@H](c4ccccc4)S(=O)(=O)[O-])[C@H]3SC2)cc1.[Na+] [Molecule 9, O=C([C@H](S(=O)(=O)[O-])c1ccccc1)N[C@@H]1C(=O)N2[C@@H]1SCC(=C2C(=O)[O-])C[n+]1ccc(cc1)C(=O)N.[Na+]]
- DNA Pol [1]: 104
- % inhibition Apo pol 10' (DRC-1, concentration 2.5): 39.849%
- % inhibition Apo pol 10' (DRC-1, concentration 5): 54.1804%
- % inhibition Apo pol 10' (DRC-1, concentration 10): 77.8206%
- % inhibition Apo pol 10' (DRC-1, concentration 20): 94.0018%
- % inhibition Apo pol 10' (DRC-1, concentration 40): 97.9008%
- % inhibition Apo pol 10' (DRC-1, concentration 80): 96.5672%
- % inhibition Apol 90' (DRC-1, concentration 2.5): 3.442%
- % inhibition Apol 90' (DRC-1, concentration 5): 17.2714%
- % inhibition Apol 90' (DRC-1, concentration 10): 53.7945%
- % inhibition Apol 90' (DRC-1, concentration 20): 88.3864%
- % inhibition Apol 90' (DRC-1, concentration 40): 97.5%
- % inhibition Apol 90' (DRC-1, concentration 80): 97.5161%
- % inhibition apPOL 180' (DRC-1, 180', concentration 2.5): -2.063%
- % inhibition apPOL 180' (DRC-1, 180', concentration 5): 5.595%
- % inhibition apPOL 180' (DRC-1, 180', concentration 10): 40.8592%
- % inhibition apPOL 180' (DRC-1, 180', concentration 20): 84.7929%
- % inhibition apPOL 180' (DRC-1, 180', concentration 40): 96.7618%
- % inhibition apPOL 180' (DRC-1, 180', concentration 80): 97.7754%
- % inhibition Apo pol 5' (DRC-2, 5', concentration 20 (unit not given)): 56%
- % inhibition Apol 40' (DRC-2, 40', concentration 40 (unit not given)): 76%
- % inhibition Apol 40' (DRC-2, 40', concentration 80 (unit not given)): 76%
- % inhibition apPOL 180' (DRC-2, 180', concentration 40 (unit not given)): 83%
- % inhibition apPOL 180' (DRC-2, 180', concentration 80 (unit not given)): 83%
- % inhibition Apo pol 5' (DRC-2, 5', concentration 2.5): 21%
- % inhibition Apo pol 5' (DRC-2, 5', concentration 5): 28%
- % inhibition Apo pol 5' (DRC-2, 5', concentration 10): 47%
- % inhibition Apo pol 5' (DRC-2, 5', concentration 20): 56%
- % inhibition Apo pol 5' (DRC-2, 5', concentration 40): 58%
- % inhibition Apo pol 5' (DRC-2, 5', concentration 80): 56%
- % inhibition Apo pol 5' (DRC-2, 5', concentration 80 (unit not given)): 56%
- % inhibition Apol 40' (DRC-2, 40', concentration 2.5): -0.192%
- % inhibition Apol 40' (DRC-2, 40', concentration 5): 15%
- % inhibition Apol 40' (DRC-2, 40', concentration 10): 49%
- % inhibition Apol 40' (DRC-2, 40', concentration 20): 71%
- % inhibition Apol 40' (DRC-2, 40', concentration 40): 76%
- % inhibition Apol 40' (DRC-2, 40', concentration 80): 76%
- % inhibition ApPOL 90' (DRC-2, concentration 2.5): -4%
- % inhibition ApPOL 90' (DRC-2, concentration 5): 8%
- % inhibition ApPOL 90' (DRC-2, concentration 10): 46%
- % inhibition ApPOL 90' (DRC-2, concentration 20): 74%
- % inhibition ApPOL 90' (DRC-2, concentration 40): 81%
- % inhibition ApPOL 90' (DRC-2, concentration 80): 80%
- % inhibition apPOL 180' (DRC-2, 180', concentration 2.5): 1.56%
- % inhibition apPOL 180' (DRC-2, 180', concentration 5): 9%
- % inhibition apPOL 180' (DRC-2, 180', concentration 10): 41%
- % inhibition apPOL 180' (DRC-2, 180', concentration 20): 75%
- % inhibition apPOL 180' (DRC-2, 180', concentration 40): 83%
- % inhibition apPOL 180' (DRC-2, 180', concentration 80): 83%
- DNA Pol [2]: 104

Structure (SMILES): O=C(Nc1nnc(-c2ccno2)o1)c1ccc2ncsc2c1 [Molecule 62]
- IC50: 14.2 µM

Structure (SMILES): COc1ccc(S(=O)(=O)/N=C2\NC(=O)/C(=C3\C(=O)Nc4ccc([N+](=O)[O-])cc43)S2)cc1 [KU0054985]
- DNA Pol [1]: 41
- % inhibition Apo pol 10' (DRC-1, concentration 2.5): 18.5864%
- % inhibition Apo pol 10' (DRC-1, concentration 5): 36.9179%
- % inhibition Apo pol 10' (DRC-1, concentration 10): 67.7559%
- % inhibition Apo pol 10' (DRC-1, concentration 20): 96.4602%
- % inhibition Apo pol 10' (DRC-1, concentration 40): 99.5336%
- % inhibition Apo pol 10' (DRC-1, concentration 80): 99.5405%
- % inhibition Apol 90' (DRC-1, concentration 2.5): 1.843%
- % inhibition Apol 90' (DRC-1, concentration 5): 6.911%
- % inhibition Apol 90' (DRC-1, concentration 10): 25.9736%
- % inhibition Apol 90' (DRC-1, concentration 20): 66.8469%
- % inhibition Apol 90' (DRC-1, concentration 40): 95.4915%
- % inhibition Apol 90' (DRC-1, concentration 80): 99.0869%
- % inhibition apPOL 180' (DRC-1, 180', concentration 2.5): -5.136%
- % inhibition apPOL 180' (DRC-1, 180', concentration 5): -1.681%
- % inhibition apPOL 180' (DRC-1, 180', concentration 10): 15.3394%
- % inhibition apPOL 180' (DRC-1, 180', concentration 20): 51.5386%
- % inhibition apPOL 180' (DRC-1, 180', concentration 40): 94.1836%
- % inhibition apPOL 180' (DRC-1, 180', concentration 80): 99.3305%
- % inhibition Apo pol 5' (DRC-2, 5', concentration 2.5): 4%
- % inhibition Apo pol 5' (DRC-2, 5', concentration 5): 9%
- % inhibition Apo pol 5' (DRC-2, 5', concentration 10): 30%
- % inhibition Apo pol 5' (DRC-2, 5', concentration 20): 52%
- % inhibition Apo pol 5' (DRC-2, 5', concentration 40): 63%
- % inhibition Apo pol 5' (DRC-2, 5', concentration 80): 67%
- % inhibition Apol 40' (DRC-2, 40', concentration 2.5): 3.68%
- % inhibition Apol 40' (DRC-2, 40', concentration 5): 6%
- % inhibition Apol 40' (DRC-2, 40', concentration 10): 20%
- % inhibition Apol 40' (DRC-2, 40', concentration 20): 38%
- % inhibition Apol 40' (DRC-2, 40', concentration 40): 74%
- % inhibition Apol 40' (DRC-2, 40', concentration 80): 82%
- % inhibition ApPOL 90' (DRC-2, concentration 2.5): 3.52%
- % inhibition ApPOL 90' (DRC-2, concentration 5): 5%
- % inhibition ApPOL 90' (DRC-2, concentration 10): 18%
- % inhibition ApPOL 90' (DRC-2, concentration 20): 33%
- % inhibition ApPOL 90' (DRC-2, concentration 40): 75%
- % inhibition ApPOL 90' (DRC-2, concentration 80): 85%
- % inhibition apPOL 180' (DRC-2, 180', concentration 2.5): 4.38%
- % inhibition apPOL 180' (DRC-2, 180', concentration 5): 2.14%
- % inhibition apPOL 180' (DRC-2, 180', concentration 10): 13%
- % inhibition apPOL 180' (DRC-2, 180', concentration 20): 26%
- % inhibition apPOL 180' (DRC-2, 180', concentration 40): 72%
- % inhibition apPOL 180' (DRC-2, 180', concentration 80): 88%
- DNA Pol [2]: 41

Structure (SMILES): O=C(NNC(=O)C(F)(F)Sc1ccccc1)c1ccsc1 [Molecule 68]
- IC50: 21 µM
